# Test results reported in ChEMBL document CHEMBL1126024, “Di- and triester prodrugs of the varicella-zoster antiviral agent 6-methoxypurine arabinoside” (J Med Chem, 1992).
# Legend:
# [1] = Ester prodrugs: stability in buffer (pH 7); format: physicochemical
# [2] = Solubility (phosphate buffered saline); format: physicochemical; conditions: read-out: S
# Rattus norvegicus [3] = species: Rattus norvegicus; assay: (§1) Ester prodrugs: recovery of parent compound in rat urine; format: ADME, organism-based; conditions: in vivo
# Rattus norvegicus [4] = species: Rattus norvegicus; assay: as §1; format: ADME, organism-based; conditions: in vivo; remark: listed apart in the source
Structure (SMILES),T1/2 [1],solubility [2],Urinary recovery (Rattus norvegicus [3]),Urinary recovery (Rattus norvegicus [4])
COc1ncnc2c1ncn2[C@@H]1O[C@H](COC(=O)C(C)C)[C@@H](OC(=O)C(C)C)[C@@H]1O,19.5 days,428 µM,17.7%,
CCCCC(=O)OC[C@H]1O[C@@H](n2cnc3c(OC)ncnc32)[C@@H](O)[C@@H]1OC(=O)CCCC,,78 µM,12.8%,
CCC(=O)OC[C@H]1O[C@@H](n2cnc3c(OC)ncnc32)[C@@H](O)[C@@H]1OC(=O)CC,30.2 days,2390 µM,11%,
COc1ccc(C(=O)OC[C@H]2O[C@@H](n3cnc4c(OC)ncnc43)[C@@H](OC(=O)c3ccc(OC)cc3)[C@@H]2OC(=O)c2ccc(OC)cc2)cc1,,< 5 µM,4.1%,
COc1ncnc2c1ncn2[C@@H]1O[C@H](COC(=O)Cc2ccccc2)[C@@H](OC(=O)Cc2ccccc2)[C@@H]1O,,< 5 µM,1.5%,
CCCCC(=O)OC[C@H]1O[C@@H](n2cnc3c(OC)ncnc32)[C@@H](OC(=O)CCCC)[C@@H]1OC(=O)CCCC,,21 µM,2.2%,
CCC(=O)O[C@H]1[C@H](OC(=O)CC)[C@@H](CO)O[C@H]1n1cnc2c(OC)ncnc21,525 days,23500 µM,8.7%,
COc1ncnc2c1ncn2[C@@H]1O[C@H](COC(=O)C(C)(C)C)[C@@H](O)[C@@H]1OC(=O)C(C)(C)C,178 days,1350 µM,15.7%,
CCCC(=O)O[C@H]1[C@H](OC(=O)CCC)[C@@H](CO)O[C@H]1n1cnc2c(OC)ncnc21,13.1 days,9600 µM,4.8%,
COc1ncnc2c1ncn2[C@@H]1O[C@H](CO)[C@@H](OC(=O)c2ccc(C)cc2)[C@@H]1OC(=O)c1ccc(C)cc1,,5 µM,0.2%,
COc1ncnc2c1ncn2[C@@H]1O[C@H](CO)[C@@H](OC(=O)C(C)(C)C)[C@@H]1OC(=O)C(C)(C)C,72.7 days,640 µM,1.6%,
COc1ccc(C(=O)OC[C@H]2O[C@@H](n3cnc4c(OC)ncnc43)[C@@H](OC(=O)c3ccc(OC)cc3)[C@@H]2O)cc1,,6 µM,0.2%,
COc1ncnc2c1ncn2[C@@H]1O[C@H](COC(=O)C(C)(C)C)[C@@H](OC(=O)C(C)(C)C)[C@@H]1OC(=O)C(C)(C)C,,14 µM,5.4%,
COc1ncnc2c1ncn2[C@@H]1O[C@H](COC(=O)C(C)(C)C)[C@@H](OC(=O)C(C)(C)C)[C@@H]1O,,32 µM,1.2%,
CCCCCCCC(=O)O[C@H]1[C@H](OC(=O)CCCCCCC)[C@@H](CO)O[C@H]1n1cnc2c(OC)ncnc21,,36 µM,12.6%,
CCCCC(=O)OC[C@H]1O[C@@H](n2cnc3c(OC)ncnc32)[C@@H](OC(=O)CCCC)[C@@H]1O,51.6 days,1300 µM,15.3%,
COc1ncnc2c1ncn2[C@@H]1O[C@H](CO)[C@@H](OC(=O)C(C)C)[C@@H]1OC(=O)C(C)C,28.9 days,3300 µM,2.3%,
COc1ncnc2c1ncn2[C@@H]1O[C@H](COC(=O)C(C)C)[C@@H](O)[C@@H]1OC(=O)C(C)C,53.6 days,9110 µM,4.2%,
COc1ncnc2c1ncn2[C@@H]1O[C@H](CO)[C@@H](O)[C@@H]1O,,49800 µM,3.8%,25.9%
COc1ncnc2c1ncn2[C@@H]1O[C@H](CO)[C@@H](OC(C)=O)[C@@H]1OC(C)=O,19.1 days,172000 µM,19.2%,
COc1ncnc2c1ncn2[C@@H]1O[C@H](COC(C)=O)[C@@H](O)[C@@H]1OC(C)=O,22.5 days,7100 µM,10.6%,
COc1ncnc2c1ncn2[C@@H]1O[C@H](COS(=O)(=O)c2ccc(C)cc2)[C@@H](OS(=O)(=O)c2ccc(C)cc2)[C@@H]1OS(=O)(=O)c1ccc(C)cc1,,5 µM,3%,
COc1ncnc2c1ncn2[C@@H]1O[C@H](CO)[C@@H](OC(=O)c2ccccc2)[C@@H]1OC(=O)c1ccccc1,,13 µM,0.1%,

Structure (SMILES),T1/2 [1],solubility [2],Urinary recovery (Rattus norvegicus [3]),Urinary recovery (Rattus norvegicus [4])
COc1ncnc2c1ncn2[C@@H]1O[C@H](COC(=O)COc2ccccc2)[C@@H](OC(=O)COc2ccccc2)[C@@H]1OC(=O)COc1ccccc1,,22 µM,4.6%,
CCCCCCC(=O)O[C@H]1[C@H](OC(=O)CCCCCC)[C@@H](CO)O[C@H]1n1cnc2c(OC)ncnc21,,30 µM,10.5%,
COc1ccc(C(=O)O[C@H]2[C@H](OC(=O)c3ccc(OC)cc3)[C@@H](CO)O[C@H]2n2cnc3c(OC)ncnc32)cc1,,5 µM,0.2%,
COc1ncnc2c1ncn2[C@@H]1O[C@H](COC(=O)c2ccc(C)cc2)[C@@H](OC(=O)c2ccc(C)cc2)[C@@H]1OC(=O)c1ccc(C)cc1,,< 5 µM,5.6%,
COc1ncnc2c1ncn2[C@@H]1O[C@H](COC(=O)c2ccccc2)[C@@H](OC(=O)c2ccccc2)[C@@H]1OC(=O)c1ccccc1,,8 µM,0.9%,
COc1ncnc2c1ncn2[C@@H]1O[C@H](COS(C)(=O)=O)[C@@H](OS(C)(=O)=O)[C@@H]1OS(C)(=O)=O,> 70 days,3220 µM,4.4%,
COc1ncnc2c1ncn2[C@@H]1O[C@H](CO)[C@@H](OC(=O)COc2ccccc2)[C@@H]1OC(=O)COc1ccccc1,,67 µM,7.6%,
COc1ncnc2c1ncn2[C@@H]1O[C@H](COC(=O)c2ccccc2)[C@@H](O)[C@@H]1OC(=O)c1ccccc1,,< 5 µM,5.8%,
COc1ncnc2c1ncn2[C@@H]1O[C@H](COC(C)=O)[C@@H](OC(C)=O)[C@@H]1O,30.6 days,12300 µM,16.3%,
COc1ncnc2c1ncn2[C@@H]1O[C@H](COC(=O)Cc2ccccc2)[C@@H](OC(=O)Cc2ccccc2)[C@@H]1OC(=O)Cc1ccccc1,,< 5 µM,4.1%,
CCCCCC(=O)O[C@H]1[C@H](OC(=O)CCCCC)[C@@H](CO)O[C@H]1n1cnc2c(OC)ncnc21,,140 µM,4.8%,
COc1ncnc2c1ncn2[C@@H]1O[C@H](COC(=O)COc2ccccc2)[C@@H](OC(=O)COc2ccccc2)[C@@H]1O,,58 µM,3.8%,
COc1ncnc2c1ncn2[C@@H]1O[C@H](COC(C)=O)[C@@H](OC(C)=O)[C@@H]1OC(C)=O,15.2 days,81800 µM,8.3%,
COc1ncnc2c1ncn2[C@@H]1O[C@H](CO)[C@@H](OC(=O)Cc2ccccc2)[C@@H]1OC(=O)Cc1ccccc1,,204 µM,2.7%,
CCCC(=O)OC[C@H]1O[C@@H](n2cnc3c(OC)ncnc32)[C@@H](O)[C@@H]1OC(=O)CCC,,422 µM,11.8%,
COc1ncnc2c1ncn2[C@@H]1O[C@H](COC(=O)C(C)C)[C@@H](OC(=O)C(C)C)[C@@H]1OC(=O)C(C)C,,141 µM,2.1%,
CCC(=O)OC[C@H]1O[C@@H](n2cnc3c(OC)ncnc32)[C@@H](OC(=O)CC)[C@@H]1OC(=O)CC,127 days,3550 µM,0.8%,
CCCC(=O)OC[C@H]1O[C@@H](n2cnc3c(OC)ncnc32)[C@@H](OC(=O)CCC)[C@@H]1OC(=O)CCC,,102 µM,0.7%,
COc1ncnc2c1ncn2[C@@H]1O[C@H](COC(=O)c2ccc(Cl)cc2)[C@@H](OC(=O)c2ccc(Cl)cc2)[C@@H]1OC(=O)c1ccc(Cl)cc1,,< 5 µM,4.5%,
CCCCC(=O)O[C@H]1[C@H](OC(=O)CCCC)[C@@H](CO)O[C@H]1n1cnc2c(OC)ncnc21,7.02 days,694 µM,9.1%,
"COc1ncnc2c1ncn2[C@@H]1O[C@H](COC(=O)c2ccccc2)C(OC(=O)c2ccccc2)[C@@H]1O (single isomer, unassigned)",,33 µM,4.3%,
"COc1ccc(C(=O)OC[C@H]2O[C@@H](n3cnc4c(OC)ncnc43)[C@@H](O)C2OC(=O)c2ccc(OC)cc2)cc1 (single isomer, unassigned)",,45 µM,0.2%,
